Laboratory results as given in PMC2680390 (Journal of medicinal chemistry, 2008).
Blank lines part the entries; values can stand above or below the molecule they belong to.

How the values were obtained:
[1] = target: ERβ/SRC-3 coactivator interaction (Homo sapiens, UniProt Q92731); test: TR-FRET CBI assay, ERβ-LBD / SRC-3-NRD; type: binding; details: for TR-FRET Ki ERβ: estradiol present, fluorescein-SRC-3-NRD
[2] = target: ERβ (Homo sapiens, UniProt Q92731); test: Preliminary cell-based reporter gene systems, ERβ; details: preliminary studies
[3] = tested on: HEC-1 cells; test: CellTiter 96 AQueous One Solution Cell Proliferation Assay; type: cell-based; details: doses up to 20 μM
[4] = target: T1, ERα/SRC-3 coactivator interaction (Homo sapiens, UniProt P03372, C381S/C530S); test: TR-FRET CBI assay, ERα-LBD / SRC-3-NRD; type: binding; details: 1 μM estradiol, fluorescein-SRC-3-NRD 50 nM; for Ki: TR-FRET Ki ERα
T1 sequence (P03372 311-547 C381S/C530S limits assumed): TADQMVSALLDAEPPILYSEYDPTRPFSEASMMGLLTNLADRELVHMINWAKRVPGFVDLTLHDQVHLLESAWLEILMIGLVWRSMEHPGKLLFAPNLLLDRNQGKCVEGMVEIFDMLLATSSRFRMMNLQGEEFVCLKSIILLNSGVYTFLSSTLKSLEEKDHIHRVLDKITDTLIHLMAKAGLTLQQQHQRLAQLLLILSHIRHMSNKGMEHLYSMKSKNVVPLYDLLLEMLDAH

[5] = target: ERα coactivator binding; details: read-out: Ki by fluorescence polarization assay; FP assay; cited from earlier work
[6] = target: T2, ERβ ligand-binding domain (site-specifically labeled terbium/streptavidin-biotin/ER-LBD construct) (site-specifically labeled with biotin; bound to streptavidin-terbium in the assay); test: FRET or BRET
T2 chain: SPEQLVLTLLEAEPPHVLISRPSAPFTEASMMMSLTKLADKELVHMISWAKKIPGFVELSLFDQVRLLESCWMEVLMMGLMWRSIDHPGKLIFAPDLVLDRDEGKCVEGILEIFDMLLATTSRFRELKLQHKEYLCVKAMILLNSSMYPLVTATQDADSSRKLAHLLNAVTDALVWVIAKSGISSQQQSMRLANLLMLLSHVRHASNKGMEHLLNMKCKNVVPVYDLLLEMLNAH

Chain of ERβ (Q92731 whole entry): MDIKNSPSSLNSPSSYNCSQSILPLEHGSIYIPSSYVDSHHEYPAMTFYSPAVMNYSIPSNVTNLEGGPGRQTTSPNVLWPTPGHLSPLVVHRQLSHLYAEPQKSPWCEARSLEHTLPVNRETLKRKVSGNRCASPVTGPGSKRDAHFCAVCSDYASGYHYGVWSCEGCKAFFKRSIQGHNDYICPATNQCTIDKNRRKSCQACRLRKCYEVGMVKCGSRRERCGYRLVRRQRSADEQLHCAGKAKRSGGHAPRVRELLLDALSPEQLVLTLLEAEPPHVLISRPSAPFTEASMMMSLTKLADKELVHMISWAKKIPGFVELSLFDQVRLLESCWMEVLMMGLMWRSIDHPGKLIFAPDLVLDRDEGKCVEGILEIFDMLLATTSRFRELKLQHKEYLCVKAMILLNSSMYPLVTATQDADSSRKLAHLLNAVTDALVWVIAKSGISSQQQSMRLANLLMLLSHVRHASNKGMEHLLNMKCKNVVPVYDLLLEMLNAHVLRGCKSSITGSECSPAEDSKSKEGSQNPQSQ

- TR-FRET Ki ERα [4]: complete loss of activity
- Ki [4]: > 1000 µM
- Ki [1]: > 1000 µM
Molecule: CC(C)CNc1ccnc(NCC(C)C)n1 [Compound 27d, 2,4-diisobutylamino-pyrimidine]

- TR-FRET Ki ERα [4]: lack of activity
Molecule: CC(C)CNc1cc(S(=O)(=O)CC(C)C)nc(NCC(C)C)n1 [Compound 28]

- TR-FRET Ki ERα [4]: activity is nearly fully restored
Molecule: CC(C)CCc1cc(NCC(C)C)nc(N(C)CC(C)C)n1 [Compound 31a]

- TR-FRET Ki ERα [4]: inactive
Molecule: CC(C)CNc1cc(CCc2cccc3ccccc23)nc(N(C)CC(C)C)n1 [Compound 31c]

- TR-FRET Ki ERα [4]: inactive
Molecule: CC(C)CNc1cc(CCc2ccccc2)nc(N(C)CC(C)C)n1 [Compound 32, N^2-methyl-N^2,N^4-diisobutyl-(6-phenethyl-pyrimidin-2,4-yl)-diamine]

- TR-FRET Ki ERα [4]: no binding is observed
Molecule: CC(C)CCc1cc(N(C)CC(C)C)nc(NCC(C)C)n1 [Compound 34a]

- Ki [6]: 0.066 µM
Molecule: LTERHKILHRLLQEGSPSD [unlabeled peptide containing the NR Box II (LXXLL motif) of SRC-1]

More lines, now with the values behind:

Molecule: CC(C)CNc1cc(/C=C/c2ccccc2)nc(NCC(C)C)n1 [Compound 2a, N,N'-diisobutyl-(6-styryl-pyrimidin-2,4-yl)-diamine]
- Ki [1]: 242 µM
- TR-FRET Ki ERβ [1]: very modest affinity for ERβ

Molecule: CC(C)CNc1cc(CCc2ccccc2)nc(NCC(C)C)n1 [Compound 3a]
- Mechanism-based inhibition of ERβ in cell-based reporter gene systems [2]: no mechanism-based inhibition of ERβ
- Viable cell counts [3]: decreased significantly only at the highest doses of compound (20 μM)

Molecule: CC(C)CNc1nc(/C=C/c2ccccc2)cc(N(Cc2ccccc2)C(=O)OC(C)(C)C)n1 [Compound 8b]
- TR-FRET Ki ERα [4]: no activity for ERα
- TR-FRET Ki ERβ [1]: very modest affinity for ERβ

Molecule: CC(C)CNc1cc(/C=C/c2ccccc2)nc(NCc2ccccc2)n1 [Compound 10a, N^2-Benzyl-N^4-isobutyl-6-styryl-pyrimidine-2,4-diamine]
- Viable cell counts [3]: decreased significantly only at the highest doses of compound (20 μM)

Molecule: CC(C)CCc1cc(NCC(C)C)nc(NCC(C)C)n1 [Compound 13b, 2,4-diisobutylamino-6-isoamylpyrimidine]
- Ki [5]: 29 µM
- Mechanism-based inhibition of ERβ in cell-based reporter gene systems [2]: no mechanism-based inhibition of ERβ

Molecule: CC(C)CCc1cc(NCC(C)C)nc(NCc2ccccc2)n1 [Compound 18b]
- Viable cell counts [3]: decreased significantly only at the highest doses of compound (20 μM)

Molecule: CC(C)CNc1cc(NCC(C)C)nc(NCC(C)C)n1 [Compound 25a, N,N',N''-Triisobutyl-pyrimidine-2,4,6-triamine]
- Viable cell counts [3]: decreased significantly only at the highest doses of compound (20 μM)
- TR-FRET Ki ERβ [1]: very modest affinity for ERβ

Molecule: CC(C)CSc1cc(SCC(C)C)nc(SCC(C)C)n1 [Compound 25e, 2,4,6-Tris-isobutylsulfanyl-pyrimidine]
- Ki [4]: 120 µM

Molecule: CC(C)CNc1cc(Cl)nc(NCC(C)C)n1 [Compound 26, 2,4-diisobutylamino-6-chloropyrimidine]
- TR-FRET Ki ERα [4]: complete loss of activity
- Ki [4]: > 1000 µM
- Ki [1]: > 1000 µM

Molecule: CC(C)CNc1cc(NCc2ccccc2)nc(NCC(C)C)n1 [Compound 27a]
- Ki [4]: 7.3 µM
- Mechanism-based inhibition of ERβ in cell-based reporter gene systems [2]: no mechanism-based inhibition of ERβ

Molecule: CC(C)CNc1cc(OCC(C)C)nc(NCC(C)C)n1 [Compound 27b]
- TR-FRET Ki ERα [4]: lack of activity

Molecule: CC(C)CCc1cc(NCC(C)C)nc(OCC(C)C)n1 [Compound 37a, [2-Isobutoxy-6-(3-methyl-butyl)-pyrimidin-4-yl]-isobutylamine]
- TR-FRET Ki ERα [4]: None of these O- or S-containing pyrimidines showed any inhibition
- Viable cell counts [3]: decreased significantly only at the highest doses of compound (20 μM)

Molecule: CC(C)CCc1cc(NCC(C)C)nc(S(=O)(=O)CC(C)C)n1 [Compound 39, Isobutyl-[6-(3-methyl-butyl)-2-(2-methyl-propane-1-sulfonyl)-pyrimidin-4-yl]-amine]
- TR-FRET Ki ERα [4]: None of these O- or S-containing pyrimidines showed any inhibition
